Results published in publication PMC7018803, “A randomized, placebo-controlled, phase 1 study to evaluate the effects of TAK-063 on ketamine-induced changes in fMRI BOLD signal in healthy subjects” (Psychopharmacology, 2019).

Tests used:
healthy male subjects = assay: Ketamine-induced changes in fMRI BOLD signal during resting state; type: in vivo, human
Procedure: (§1) Subjects checked in on day − 1 of each treatment period during which vital signs, electrocardiogram (ECG), and laboratory safety tests were repeated. On day 1 of each treatment period, subjects received a 3-, 10-, or 30-mg TAK-063 dose or placebo tablets. Participants then relaxed, slept, or watched movies while remaining in the research environment. Ketamine (0.12 mg/kg intravenous bolus over 60 s followed by a continuous infusion of 0.31 mg/kg/h over approximately 150 min) was administered 4 h after TAK-063 or placebo (Fig. 1). This ketamine dose was based on a previous study that achieved steady-state concentrations of 75 ng/mL and provided a robust BOLD signal with minimal psychotomimetic symptoms (De Simoni et al. [2013]).
The scanning protocol for the current study was very comprehensive and included multiple MR approaches. This publication reports the BOLD fMRI data for the working memory task, but also resting state fMRI. The magnetic scanning portion of the neuroimaging test battery was initiated 20 min before ketamine dosing. Imaging was performed using a 3 Tesla Siemens Trio scanner. The MR scanning protocol was initiated 20 min before ketamine dosing; prior to scanning, a structural magnetization prepared rapid gradient echo (MPRAGE) scan was collected. As part of the scanning protocol, each subject received 20 min of scanning − 10 min arterial spin labeling (ASL) plus 10 min resting BOLD prior to ketamine infusion. After ketamine infusion, the resting state fMRI BOLD acquisition continued for an additional 10 min. Next, a Spatial Working Memory task-induced fMRI BOLD acquisition was performed for 15 min. Following these BOLD acquisitions, another 10 min ASL scan was acquired and a 10-min T1 relaxometry scan was conducted. The MR scanning sequence ended with a 5-min MPRAGE acquisition.
Fifty sequential gradient-echo echoplanar images (EPIs) sensitive to blood oxygenation level-dependent (BOLD) signal were collected in contiguous slices of 6-mm thickness, with 3000-ms repetition time, 40-ms echo time, 20 × 20-cm field of view, a 64 × 64 image matrix, 70° flip angle, and an in-plane resolution of 3 × 3 mm. A working memory challenge based on the expectancy A-X Continuous Performance Test (AX-CPT) paradigm was presented. The AX-CPT task was implemented in Eprime and presents 144 trials in four blocks of 36 trials. Before scanning, participants practiced the task (Barch et al. [2001]; MacDonald et al. [2003]).
We conducted a number of pre-processing steps to standardize examination of data after acquisition. These steps included (a) using the anatomical image (T1 weighted MPRAGE acquired for each subject at the beginning of the imaging session) to determine the parameters for spatial normalization to the EPI template image supplied with statistical parametric mapping (SPM) using a 12-parameter transformation; (b) registering functional images to correct for subject movement during the experimental paradigm; (c) normalizing functional images to transform images from analyzed subjects into the same standard space; (d) smoothing images (8-mm full width at half maximum [FWHM]) to minimize normalization artifacts and improve signal to noise ratio; (e) applying a high pass filter of 1200 s to the data following spatial smoothing to minimize the influence of very low frequency noise present in fMRI BOLD data without distorting the ketamine response profile. […]

[1] = Plasma ketamine concentrations during intravenous bolus plus continuous infusion; type: in vivo; conditions: human
Procedure: as §1
Blood samples were collected for the determination of TAK-063 and ketamine concentrations, and ketamine concentrations were used to verify intravenous delivery of ketamine. Blood samples for determination of TAK-063 concentration were collected at pre-dose and at 0.5, 2, 3, 4.5, 6, 8, 10, 12, and 24 h post dose. Blood samples for determination of ketamine concentration were collected at 0.5, 1, 2, and 2.5 h after administration of ketamine. The target ketamine concentration was established at 75 ng/mL. PK samples were not collected from the arm in which ketamine was administered.

[2] = 0.12 mg/kg iv bolus then 0.31 mg/kg/h infusion; ref De Simoni et al. [2013]; cited from earlier work
healthy human subjects = conditions: cited from earlier work

Row | SMILES | activation in ROIs (healthy male subjects; percent BOLD signal change, resting state (Fig. 7)) | effect on fMRI BOLD resting signal (healthy male subjects; placebo group, most regions studied) | effect on fMRI BOLD in cingulate/BA25 (healthy male subjects; placebo group, resting state) | concentration at 30 min ([1]; 30 min post dose, with placebo or TAK-063 3 to 30 mg, range of means) [ng/mL] | Cmax ([1]; during continuous infusion, range of means across regimens) [ng/mL] | Tmax ([1]; range across regimens) [h] | steady-state concentration [2] [ng/mL] | ketamine-induced changes in BOLD signal (healthy human subjects; ref Doyle et al. [2013], Shcherbinin et al. [2015]) | ketamine-induced changes in brain perfusion (ASL) (healthy human subjects; ref Shcherbinin et al. [2015])
1 | CNC1(c2ccccc2Cl)CCCCC1=O (stereo not drawn) [ketamine] | increased activation in all ROIs examined | increased fMRI BOLD resting signal | decrease in fMRI BOLD | 69.9 to 83.3 | 168 to 179 | 2.3 to 2.5 | 75 |  | 
2 | Cc1nc2n(c(=O)c1CCN1CCC(c3noc4cc(F)ccc34)CC1)CCCC2 [risperidone] |  |  |  |  |  |  |  | reversed | increased ketamine-induced perfusion changes
